Measured values as given in patent publication US20240166589A1, “METHOD FOR PRODUCING FORM-II TYPE REDUCED COENZYME Q10 CRYSTAL OR CRYSTALLINE SOLID OF SAME, AND CRYSTALLIZING APPARATUS” (KANEKA CORPORATION, priority 2021, published 2024).

What was measured:
[1] = Oxidation stability (relative percentage of QH) after open storage in a constant temperature bath, HPLC; assay type: physicochemical; conditions: open system, 1 month, relative to initial reduced coenzyme Q10 content as 100; for Relative percentage of QH (25° C., 1M): 25° C. and RH 60%; for Relative percentage of QH (40° C., 1M): 40° C. and RH 75%
Protocol: The oxidation stability of the reduced coenzyme Q10 crystals obtained in Examples was evaluated by the following method.
The reduced coenzyme Q10 crystals obtained in Examples were stored in an open system for one month in a constant temperature bath set at 40° C. and RH (relative humidity) of 75% and at 25° C. and RH of 60% and then subjected to high-performance liquid chromatography to calculate the content ratio of reduced coenzyme Q10 (QH) and oxidized coenzyme Q10.
The oxidation stability of reduced coenzyme Q10 crystal was calculated as a relative percentage of QH by the following formula based on the relative value with the content of reduced coenzyme Q10 for the initial reduced coenzyme Q10 crystal before storage in a constant temperature bath, i.e., the content of reduced coenzyme Q10 when measured using the crystals obtained in Examples immediately after obtaining the crystals, as 100.
Relative percentage of QH (%)=Content of reduced coenzyme Q10 after storage/Content of initial reduced coenzyme Q10×100
Conditions for the high performance liquid chromatography, by which the reduced coenzyme Q10 concentration and the oxidized coenzyme Q10 concentration were measured, are shown below.
• Column: SYMMETRY C18 (manufactured by Waters); 250 mm (length), 4.6 mm (inner diameter) • Mobile phase: C2H5OH:CH3OH=4:3 (v:v) • Detection wavelength: 210 nm • Flow rate: 1 ml/min

[2] = Saturation concentration in an alcohol; assay type: physicochemical
[3] = reported in Patent Literature 4; cited from earlier work

| Compound | Relative percentage of QH (25° C., 1M) [1] | Relative percentage of QH (40° C., 1M) [1] | saturation concentration compared with Form I crystal [2] | stability compared with reduced coenzyme Q10 Form I crystal [3] |
| --- | --- | --- | --- | --- |
| COc1c(O)c(C)c(C/C=C(\C)CC/C=C(\C)CC/C=C(\C)CC/C=C(\C)CC/C=C(\C)CC/C=C(\C)CC/C=C(\C)CC/C=C(\C)CC/C=C(\C)CCC=C(C)C)c(O)c1OC [Example 1, reduced coenzyme Q10] | 91.8% | 88.1% | – | – |
| COc1c(O)c(C)c(C/C=C(\C)CC/C=C(\C)CC/C=C(\C)CC/C=C(\C)CC/C=C(\C)CC/C=C(\C)CC/C=C(\C)CC/C=C(\C)CC/C=C(\C)CCC=C(C)C)c(O)c1OC [Example 2, reduced coenzyme Q10] | 85.1% | 81.4% | – | – |
| COc1c(O)c(C)c(C/C=C(\C)CC/C=C(\C)CC/C=C(\C)CC/C=C(\C)CC/C=C(\C)CC/C=C(\C)CC/C=C(\C)CC/C=C(\C)CC/C=C(\C)CCC=C(C)C)c(O)c1OC [Example 3, reduced coenzyme Q10] | 89.4% | 87.3% | – | – |
| COc1c(O)c(C)c(C/C=C(\C)CC/C=C(\C)CC/C=C(\C)CC/C=C(\C)CC/C=C(\C)CC/C=C(\C)CC/C=C(\C)CC/C=C(\C)CC/C=C(\C)CCC=C(C)C)c(O)c1OC [Example 4, reduced coenzyme Q10] | 92.2% | 90.1% | – | – |
| COc1c(O)c(C)c(C/C=C(\C)CC/C=C(\C)CC/C=C(\C)CC/C=C(\C)CC/C=C(\C)CC/C=C(\C)CC/C=C(\C)CC/C=C(\C)CC/C=C(\C)CCC=C(C)C)c(O)c1OC [reduced coenzyme Q10 Form II crystal, reduced coenzyme Q10] | – | – | lower than the saturation concentration of a Form I crystal | much more stable |
